Here are results for 31 molecules from US8377974B2 (Millennium Pharmaceuticals, Inc., priority 2004, dated 2013).

The structures appear in SMILES notation. pIC50: −log10 of the molar value.

The term pIC50 denotes −log10 of the IC50, conventionally taken in molar units.

T1 sequence (P00742 235-488 limits assumed): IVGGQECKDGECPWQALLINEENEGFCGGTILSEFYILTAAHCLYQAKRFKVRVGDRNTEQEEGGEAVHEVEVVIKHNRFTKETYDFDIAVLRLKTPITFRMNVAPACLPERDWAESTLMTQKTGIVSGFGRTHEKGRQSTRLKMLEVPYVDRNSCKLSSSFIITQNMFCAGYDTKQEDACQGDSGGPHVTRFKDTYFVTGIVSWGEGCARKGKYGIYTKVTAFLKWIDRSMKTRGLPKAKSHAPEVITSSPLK
T1 sequence (P00742 41-179 partner limits assumed): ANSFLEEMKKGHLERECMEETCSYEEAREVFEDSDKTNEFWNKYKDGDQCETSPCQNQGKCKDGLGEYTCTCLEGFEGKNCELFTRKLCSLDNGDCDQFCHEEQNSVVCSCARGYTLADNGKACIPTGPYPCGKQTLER

The assay addresses T1, human plasma protein factor Xa (Homo sapiens, UniProt P00742).
T1 construct: measure proteolytic activity of the enzyme (factor Xa); purchased Haematologic Technologies (Essex Junction, Vt.); host or cells: human plasma
Description: Factor Xa IC50 determination: cleavage of paranitroanilide substrate S-2765 in 96-well plates. The settings on record: fXa 1 nM, S-2765 100 μM, Tris buffered saline pH 7.4, room temperature. The class given is biochemical. The gist of the method:
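Human plasma factor Xa (1 nM) preincubated 5 min at room temperature with inhibitor (0.01 nM–10 μM final) in Tris-buffered saline pH 7.4 with 5 mM CaCl2, 0.1% BSA, 5% DMSO. S-2765 at 100 μM final; hydrolysis at 405 nm over 2 min. IC50 from 4-parameter fit of initial velocities.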
`CN1CCN=C1c1ccc(-c2cc(CNC(=O)c3ccc(Cl)s3)on2)c(Oc2ccccc2)c1` [Example 131, 5-Chloro-thiophene-2-carboxylic acid {3-[4-(1-methyl-4,5-dihydro-1H-imidazol-2-yl)-2-phenoxy-phenyl]-isoxazol-5-ylmethyl}-amide] showed a pIC50 not below 7.00.

On to `O=C(NCc1cc(-c2ccc(I)cc2)no1)c1ccc(Cl)s1` [Example 288, 5-Chloro-N-((3-(4-iodophenyl)isoxazol-5-yl)methyl)thiophene-2-carboxamide], for which the pIC50 was not above 6.30.

With `CN(C)C(=N)c1ccc(-c2cc(CNC(=O)c3ccc(Cl)s3)on2)c(Oc2ccccc2)c1` [Example 130, 5-Chloro-thiophene-2-carboxylic acid {3-[4-(N,N-dimethyl-carbamimidoyl)-2-phenoxy-phenyl]-isoxazol-5-ylmethyl}-amide], the pIC50 was not below 7.00.

With `CN(C)C(=N)c1ccc(-c2cc(CNC(=O)c3ccc(Cl)s3)no2)cc1` [Example 330, N-((5-(4-(N,N-Dimethylcarbamimidoyl)phenyl)isoxazol-3-yl)methyl)-5-chlorothiophene-2-carboxamide], the negative logarithm of the IC50 (pIC50) was not below 7.00.

In turn, `C#CCN(C)C(=N)c1ccc(-c2cc(CN(C)C(=O)c3ccc(Cl)s3)on2)cc1` [Example 47, 5-Chloro-thiophene-2-carboxylic acid methyl-{3-[4-(N-methyl-N-prop-2-ynyl-carbamimidoyl)-phenyl]-isoxazol-5-ylmethyl}-amide] showed a pIC50 not above 6.30.

In turn, `O=C(NCC1CC(c2ccc(-c3ccccc3CN3CCCC3)cc2)=NO1)c1ccc(Cl)s1` (stereo not shown) [Example 195, 5-Chloro-thiophene-2-carboxylic acid [3-(2′-pyrrolidin-1-ylmethyl-biphenyl-4-yl)-4,5-dihydro-isoxazol-5-ylmethyl]-amide] had a pIC50 not below 7.00.

With `CN1CCN=C1c1ccc(-c2ccc(F)c(CNC(=O)c3ccc(Cl)s3)c2)cc1` [Example 375, 5-Chloro-N-((5-(4-(1-methyl-4,5-dihydro-1H-imidazol-2-yl)phenyl)-2-fluorophenyl)methyl)thiophene-2-carboxamide], the pIC50 is not below 7.00.

`O=C(NCC1CC(c2ccc(Nc3ccncc3)cc2F)=NO1)c1ccc(Cl)s1` (stereo not shown) [Example 247, 5-Chloro-thiophene-2-carboxylic acid {3-[2-fluoro-4-(pyridin-4-ylamino)-phenyl]-4,5-dihydro-isoxazol-5-ylmethyl}-amide]: the pIC50 is not below 7.00.

For `Cc1ccc(C2=NOC(C)(CNC(=O)c3ccc(Cl)s3)C2)cc1` (stereo not shown) [Example 148, 5-Chloro-thiophene-2-carboxylic acid (5-methyl-3-p-tolyl-4,5-dihydro-isoxazol-5-ylmethyl)-amide], the negative-log IC50 (pIC50) is not above 6.30.

For `COCCN(C)c1cc(C(=N)N(C)C)ccc1C1=NOC(CNC(=O)c2ccc(Cl)s2)C1` (stereo not shown) [Example 86, 5-Chloro-thiophene-2-carboxylic acid (3-{4-(N,N-dimethyl-carbamimidoyl)-2-[(2-methoxy-ethyl)-methyl-amino]-phenyl}-4,5-dihydro-isoxazol-5-ylmethyl)-amide], the pIC50 is not below 7.00.

The molecule `N=C(c1ccccc1)N1CCC(c2cc(CNC(=O)c3ccc(Cl)s3)on2)CC1` [Example 181, 5-Chloro-thiophene-2-carboxylic acid {3-[1-(imino-phenyl-methyl)-piperidin-4-yl]-isoxazol-5-ylmethyl}-amide] had a pIC50 not above 6.30.

In turn, `O=C(NCC1CC(c2ccc(Nc3ccnc4cc(C(F)(F)F)ccc34)cc2)=NO1)c1ccc(Cl)s1` (stereo not shown) [Example 394, 5-Chloro-N-((3-(4-(7-(trifluoromethyl)quinolin-4-ylamino)phenyl)-4,5-dihydroisoxazol-5-yl)methyl)thiophene-2-carboxamide] gave a pIC50 not below 7.00.

Molecule `CC(C)Oc1cc(C(=N)N2CCCCC2)ccc1-c1cc(CNC(=O)c2ccc(Cl)s2)on1` [Example 129, 5-Chloro-thiophene-2-carboxylic acid {3-[4-(imino-piperidin-1-yl-methyl)-2-isopropoxy-phenyl]-isoxazol-5-ylmethyl}-amide] had a pIC50 not below 7.00.

For the molecule `O=C(NCc1cc(-c2ccc(-n3ccccc3=O)cc2)no1)c1ccc(Cl)s1` [Example 289, 5-Chloro-N-((3-(4-(2-oxopyridin-1(2H)-yl)phenyl)isoxazol-5-yl)methyl)thiophene-2-carboxamide], the pIC50 is not below 7.00.

`Nc1ccc(C2=NOC(CNC(=O)c3ccc(Cl)s3)C2)cc1` (stereo not shown) [Example 160, 5-Chloro-thiophene-2-carboxylic acid [3-(4-amino-phenyl)-4,5-dihydro-isoxazol-5-ylmethyl]-amide] gave a pIC50 not above 6.30.

`C[C@@H](NC(=O)c1ccc(Cl)s1)c1cc(-c2ccc(C(=N)N(C)C)cc2)no1` [Example 49, (R)-5-Chloro-thiophene-2-carboxylic acid (1-{3-[4-(N,N-dimethyl-carbamimidoyl)-phenyl]-isoxazol-5-yl}-ethyl)-amide] showed a pIC50 not below 7.00.

`O=C(NCC1CC(c2ccc(C(=O)N3CCC3)cc2)=NO1)c1ccc(Cl)s1` (stereo not shown) [Example 163, 5-Chloro-thiophene-2-carboxylic acid {3-[4-(azetidine-1-carbonyl)-phenyl]-4,5-dihydro-isoxazol-5-ylmethyl}-amide]: the pIC50 is not below 7.00.

The molecule `O=C(NCc1cc(-c2ccc(-c3cccc(CN4CCCC4)c3)cc2)no1)c1ccc(Cl)s1` [Example 212, 5-Chloro-thiophene-2-carboxylic acid [3-(3′-pyrrolidin-1-ylmethyl-biphenyl-4-yl)-isoxazol-5-ylmethyl]-amide] gave a pIC50 not above 6.30.

For the molecule `CN(C)C(=N)c1ccc(C2=NOC(CNC(=O)c3ccc(Cl)s3)C2)c(N2CCCC2)c1` (stereo not shown) [Example 78, 5-Chloro-thiophene-2-carboxylic acid {3-[4-(N,N-dimethyl-carbamimidoyl)-2-pyrrolidin-1-yl-phenyl]-4,5-dihydro-isoxazol-5-ylmethyl}-amide], the pIC50 was 6.30 to 7.00.

The molecule `CN(C)C(=N)c1ccc(-c2cccc(CNC(=O)c3ccc(Cl)s3)c2)cc1` [Example 380, N-((3-(4-(N,N-Dimethylcarbamimidoyl)phenyl)phenyl)methyl)-5-chlorothiophene-2-carboxamide] showed a pIC50 not below 7.00.

With `COc1ccc(CN(C)C)c(-c2ccc(C3=NOC(CNC(=O)c4ccc(Cl)s4)C3)cc2)c1` (stereo not shown) [Example 202, 5-Chloro-thiophene-2-carboxylic acid [3-(2′-dimethylaminomethyl-5′-methoxy-biphenyl-4-yl)-4,5-dihydro-isoxazol-5-ylmethyl]-amide], the pIC50 was not above 6.30.

As to `N=C(c1ccc(-n2cc(CNC(=O)c3ccc(Cl)s3)nn2)cc1)N1CCCC1` [Example 318, 5-Chloro-N-((1-(4-(imino(pyrrolidin-1-yl)methyl)phenyl)-1H-1,2,3-triazol-4-yl)methyl)thiophene-2-carboxamide], the pIC50 is not below 7.00.

The molecule `O=C(NCc1cn(-c2ccc(-n3ccccc3=O)cc2O)nn1)c1ccc(Cl)s1` [Example 307, 5-Chloro-N-((1-(2-hydroxy-4-(2-oxopyridin-1(2H)-yl)phenyl)-1H-1,2,3-triazol-4-yl)methyl)thiophene-2-carboxamide] showed a negative logarithm of the IC50 (pIC50) not below 7.00.

As to `Cc1ccc(=O)n(-c2ccc(C3=NOC(CNC(=O)c4ccc(Cl)s4)C3)cc2)c1` (stereo not shown) [Example 285, 5-Chloro-N-((3-(4-(5-methyl-2-oxopyridin-1(2H)-yl)phenyl)-4,5-dihydroisoxazol-5-yl)methyl)thiophene-2-carboxamide], the pIC50 is not below 7.00.

Turning to `C[C@@H](NC(=O)c1ccc(Cl)s1)c1cc(-c2ccc(C3=NCCN3C)cc2)no1` [Example 50, (R)-5-Chloro-thiophene-2-carboxylic acid (1-{3-[4-(1-methyl-4,5-dihydro-1H-imidazol-2-yl)-phenyl]-isoxazol-5-yl}-ethyl)-amide], the pIC50 was not below 7.00.

As to `COc1ccc(=O)n(-c2ccc(C3=NOC(CNC(=O)c4ccc(Cl)s4)C3)cc2)c1` (stereo not shown) [Example 286, 5-Chloro-N-((3-(4-(5-methoxy-2-oxopyridin-1(2H)-yl)phenyl)-4,5-dihydroisoxazol-5-yl)methyl)thiophene-2-carboxamide], the pIC50 is not below 7.00.

In the case of `O=C(NCC1CC(c2ccc(NCc3ccccc3)cc2)=NO1)c1ccc(Cl)s1` (stereo not shown) [Example 221, 5-Chloro-thiophene-2-carboxylic acid [3-(4-benzylamino-phenyl)-4,5-dihydro-isoxazol-5-ylmethyl]-amide], the pIC50 was not above 6.30.

In turn, `O=C(NCC1CC(c2ccc(Nc3ccccn3)cc2)=NO1)c1ccc(Cl)s1` (stereo not shown) [Example 224, 5-Chloro-thiophene-2-carboxylic acid {3-[4-(pyridin-2-ylamino)-phenyl]-4,5-dihydro-isoxazol-5-ylmethyl}-amide] showed a pIC50 not above 6.30.

Regarding `C[C@H](NC(=O)c1ccc(Cl)s1)c1cc(-c2ccc(C(=N)N3CCCCC3)cc2)no1` [Example 56, (S)-5-Chloro-thiophene-2-carboxylic acid (1-{3-[4-(imino-piperidin-1-yl-methyl)-phenyl]-isoxazol-5-yl}-ethyl)-amide], the pIC50 was not below 7.00.

The molecule `N=C(c1ccc(C2=NOC(CNC(=O)c3ccc(Cl)s3)C2)c(N2CCCC2)c1)N1CCCCC1` (stereo not shown) [Example 81, 5-Chloro-thiophene-2-carboxylic acid {3-[4-(imino-piperidin-1-yl-methyl)-2-pyrrolidin-1-yl-phenyl]-4,5-dihydro-isoxazol-5-ylmethyl}-amide] had a pIC50 not above 6.30.

As to `N=C(c1ccc(-c2noc(CNC(=O)c3ccc(Cl)s3)n2)cc1)N1CCCCC1` [Example 337, 5-Chloro-N-((3-(4-(imino(piperidin-1-yl)methyl)phenyl)-1,2,4-oxadiazol-5-yl)methyl)thiophene-2-carboxamide], the pIC50 is not below 7.00.
